According to publication PMC6864627, “Synthesis of Novel Triazinoindole-Based Thiourea Hybrid: A Study on α-Glucosidase Inhibitors and Their Molecular Docking” (Molecules, 2019):

Target: T1, α-glucosidase (Saccharomyces cerevisiae, UniProt P53341)
T1 construct: purchased Sigma Inc
Experiment: α-glucosidase inhibition assay
Format: biochemical
Settings: 50 mM phosphate buffer pH 6.8; 0.057 units enzyme; standard acarbose
Protocol: The α-glucosidase activity was executed according to Fazal et al.. The following chemicals were used (concentrations): • 70 μL of 50 mM phosphate buffer (pH 6.8); • 10 μL (0.5 mM in methanol) test compounds; and • 10 μL (0.057 units, Sigma Inc.) of enzyme solution in buffer. For details on the experiment, kindly see Reference.

T1 sequence (P53341 whole entry): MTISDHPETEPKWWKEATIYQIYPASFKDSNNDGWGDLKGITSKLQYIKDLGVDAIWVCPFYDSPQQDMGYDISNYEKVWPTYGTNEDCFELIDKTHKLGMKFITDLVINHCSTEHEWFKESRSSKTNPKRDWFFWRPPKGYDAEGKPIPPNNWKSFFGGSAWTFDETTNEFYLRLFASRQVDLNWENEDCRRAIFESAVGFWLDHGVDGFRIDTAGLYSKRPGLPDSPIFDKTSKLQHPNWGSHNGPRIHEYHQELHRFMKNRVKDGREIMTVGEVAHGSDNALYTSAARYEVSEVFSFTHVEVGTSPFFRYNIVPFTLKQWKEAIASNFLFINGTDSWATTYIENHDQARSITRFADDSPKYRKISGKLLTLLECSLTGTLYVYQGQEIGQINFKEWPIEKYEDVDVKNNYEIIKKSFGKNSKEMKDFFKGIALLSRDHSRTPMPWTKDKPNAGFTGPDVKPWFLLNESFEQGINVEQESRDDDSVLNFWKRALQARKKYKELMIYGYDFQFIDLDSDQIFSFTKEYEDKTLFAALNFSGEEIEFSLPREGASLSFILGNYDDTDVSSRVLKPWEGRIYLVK

Compound	IC50
S=C(NN=C(CSc1nnc2c(n1)[nH]c1ccccc12)c1ccc(-c2ccccc2)cc1)Nc1cccc(Cl)c1Cl [Compound 3, 2-(2-((5H-[1,2,4]triazino [5,6-b]indol-3-yl)thio)-1-([1,1′-biphenyl]-4-yl)ethylidene)-N-(2,3-dichlorophenyl)hydrazine-1-carbothioamide]	7.5 ± 0.2 µM
COc1ccc(C(CSc2nnc3c(n2)[nH]c2ccccc23)=NNC(=S)Nc2cccc(C)c2C)cc1 [Compound 22, 2-(2-((5H-[1,2,4]triazino[5,6-b]indol-3-yl)thio)-1-(4-methoxyphenyl)ethylidene)-N-(2,3-dimethylphenyl)hydrazine-1-carbothioamide]	5.9 ± 0.1 µM
Cc1ccc(C(CSc2nnc3c(n2)[nH]c2ccccc23)=NNC(=S)Nc2ccc(Cl)c(Cl)c2)cc1 [Compound 21, 2-(2-((5H-[1,2,4]triazino[5,6-b]indol-3-yl)thio)-1-(p-tolyl)ethylidene)-N-(3,4-dichlorophenyl)hydrazine-1-carbothioamide]	4.8 ± 0.2 µM
COc1ccc(C(CSc2nnc3c(n2)[nH]c2ccccc23)=NNC(=S)Nc2ccc([N+](=O)[O-])cc2)cc1 [Compound 2, 2-(2-((5H-[1,2,4]triazino [5,6-b]indol-3-yl)thio)-1-(4-methoxyphenyl)ethylidene)-N-(4-nitrophenyl)hydrazine-1-carbothioamide]	2.6 ± 0.05 µM
O=[N+]([O-])c1cccc(C(CSc2nnc3c(n2)[nH]c2ccccc23)=NNC(=S)Nc2cccc(Cl)c2Cl)c1 [Compound 23, 2-(2-((5H-[1,2,4]triazino[5,6-b]indol-3-yl)thio)-1-(3-nitrophenyl)ethylidene)-N-(2,3-dichlorophenyl)hydrazine-1-carbothioamide]	1.3 ± 0.01 µM
S=C(NN=C(CSc1nnc2c(n1)[nH]c1ccccc12)c1ccc(-c2ccccc2)cc1)Nc1ccc(Cl)c(Cl)c1 [Compound 19, 2-(2-((5H-[1,2,4]triazino[5,6-b]indol-3-yl)thio)-1-([1,1′-biphenyl]-4-yl)ethylidene)-N-(3,4-dichlorophenyl)hydrazine-1-carbothioamide]	2.3 ± 0.05 µM
COc1ccc(C(CSc2nnc3c(n2)[nH]c2ccccc23)=NNC(=S)Nc2ccc(Cl)c(Cl)c2)cc1 [Compound 18, 2-(2-((5H-[1,2,4]triazino[5,6-b]indol-3-yl)thio)-1-(4-methoxyphenyl)ethylidene)-N-(3,4-dichlorophenyl)hydrazine-1-carbothioamide]	2.3 ± 0.05 µM
COc1ccc(C(CSc2nnc3c(n2)[nH]c2ccccc23)=NNC(=S)Nc2c(C)cccc2C)cc1 [Compound 15, 2-(2-((5H-[1,2,4]triazino[5,6-b]indol-3-yl)thio)-1-(4-methoxyphenyl)ethylidene)-N-(2,6-dimethylphenyl)hydrazine-1-carbothioamide]	5.8 ± 0.2 µM
Cc1cccc(C)c1NC(=S)NN=C(CSc1nnc2c(n1)[nH]c1ccccc12)c1ccc(-c2ccccc2)cc1 [Compound 13, 2-(2-((5H-[1,2,4]triazino[5,6-b]indol-3-yl)thio)-1-([1,1′-biphenyl]-4-yl)ethylidene)-N-(2,6-dimethylphenyl)hydrazine-1-carbothioamide]	23.3 ± 0.5 µM
COc1ccc(C(CSc2nnc3c(n2)[nH]c2ccccc23)=NNC(=S)Nc2ccccc2)cc1 [Compound 25, 2-(2-((5H-[1,2,4]triazino[5,6-b]indol-3-yl)thio)-1-(4-methoxyphenyl)ethylidene)-N-phenylhydrazine-1-carbothioamide]	9.3 ± 0.3 µM
Cc1ccc(NC(=S)NN=C(CSc2nnc3c(n2)[nH]c2ccccc23)c2ccc(-c3ccccc3)cc2)cc1 [Compound 4, 2-(2-((5H-[1,2,4]triazino[5,6-b]indol-3-yl)thio)-1-([1,1′-biphenyl]-4-yl)ethylidene)-N-(p-tolyl)hydrazine-1-carbothioamide]	12.8 ± 0.3 µM
Cc1ccc(C(CSc2nnc3c(n2)[nH]c2ccccc23)=NNC(=S)Nc2ccccc2Br)cc1 [Compound 7, 2-(2-((5H-[1,2,4]triazino[5,6-b]indol-3-yl)thio)-1-(p-tolyl)ethylidene)-N-(2-bromophenyl)hydrazine-1-carbothioamide]	33.3 ± 0.6 µM
Cc1cccc(C)c1NC(=S)NN=C(CSc1nnc2c(n1)[nH]c1ccccc12)c1cccc([N+](=O)[O-])c1 [Compound 14, 2-(2-((5H-[1,2,4]triazino[5,6-b]indol-3-yl)thio)-1-(3-nitrophenyl)ethylidene)-N-(2,6-dimethylphenyl)hydrazine-1-carbothioamide]	7.5 ± 0.2 µM
Cc1ccc(NC(=S)NN=C(CSc2nnc3c(n2)[nH]c2ccccc23)c2ccc(C)cc2)cc1 [Compound 8, 2-(2-((5H-[1,2,4]triazino[5,6-b]indol-3-yl)thio)-1-(p-tolyl)ethylidene)-N-(p-tolyl)hydrazine-1-carbothioamide]	17.5 ± 0.3 µM
Cc1ccc(NC(=S)NN=C(CSc2nnc3c(n2)[nH]c2ccccc23)c2cccc([N+](=O)[O-])c2)cc1 [Compound 12, 2-(2-((5H-[1,2,4]triazino[5,6-b]indol-3-yl)thio)-1-(3-nitrophenyl)ethylidene)-N-(p-tolyl)hydrazine-1-carbothioamide]	8.3 ± 0.2 µM
COc1ccc(C(CSc2nnc3c(n2)[nH]c2ccccc23)=NNC(=S)Nc2cccc(Cl)c2Cl)cc1 [Compound 1, 2-(2-((5H-[1,2,4]triazino [5,6-b]indol-3-yl)thio)-1-(4-methoxyphenyl)ethylidene)-N-(2,3-dichlorophenyl)hydrazine-1-carbothioamide]	1.3 ± 0.05 µM
Cc1ccc(C(CSc2nnc3c(n2)[nH]c2ccccc23)=NNC(=S)Nc2c(C)cccc2C)cc1 [Compound 20, 2-(2-((5H-[1,2,4]triazino[5,6-b]indol-3-yl)thio)-1-(p-tolyl)ethylidene)-N-(2,6-dimethylphenyl)hydrazine-1-carbothioamide]	7.5 ± 0.2 µM
O=[N+]([O-])c1ccc(C(CSc2nnc3c(n2)[nH]c2ccccc23)=NNC(=S)Nc2ccccc2)cc1 [Compound 9, 2-(2-((5H-[1,2,4]triazino[5,6-b]indol-3-yl)thio)-1-(4-nitrophenyl)ethylidene)-N-phenylhydrazine-1-carbothioamide]	6.8 ± 0.1 µM
O=[N+]([O-])c1cccc(C(CSc2nnc3c(n2)[nH]c2ccccc23)=NNC(=S)Nc2ccccc2)c1 [Compound 17, 2-(2-((5H-[1,2,4]triazino[5,6-b]indol-3-yl)thio)-1-(3-nitrophenyl)ethylidene)-N-phenylhydrazine-1-carbothioamide]	8.8 ± 0.2 µM
S=C(NN=C(CSc1nnc2c(n1)[nH]c1ccccc12)c1ccc(-c2ccccc2)cc1)Nc1ccccc1 [Compound 24, 2-(2-((5H-[1,2,4]triazino[5,6-b]indol-3-yl)thio)-1-([1,1′-biphenyl]-4-yl)ethylidene)-N-phenylhydrazine-1-carbothioamide]	15.3 ± 0.3 µM
O=[N+]([O-])c1cccc(C(CSc2nnc3c(n2)[nH]c2ccccc23)=NNC(=S)Nc2ccccc2Br)c1 [Compound 11, 2-(2-((5H-[1,2,4]triazino[5,6-b]indol-3-yl)thio)-1-(3-nitrophenyl)ethylidene)-N-(2-bromophenyl)hydrazine-1-carbothioamide]	26.8 ± 0.7 µM
COc1ccc(C(CSc2nnc3c(n2)[nH]c2ccccc23)=NNC(=S)Nc2ccccc2Br)cc1 [Compound 10, 2-(2-((5H-[1,2,4]triazino[5,6-b]indol-3-yl)thio)-1-(4-methoxyphenyl)ethylidene)-N-(2-bromophenyl)hydrazine-1-carbothioamide]	35.8 ± 0.8 µM
S=C(NN=C(CSc1nnc2c(n1)[nH]c1ccccc12)c1ccc(-c2ccccc2)cc1)Nc1ccccc1Br [Compound 6, 2-(2-((5H-[1,2,4]triazino[5,6-b]indol-3-yl)thio)-1-([1,1′-biphenyl]-4-yl)ethylidene)-N-(2-bromophenyl)hydrazine-1-carbothioamide]	25.3 ± 0.5 µM
COc1ccc(C(CSc2nnc3c(n2)[nH]c2ccccc23)=NNC(=S)Nc2ccc(C)cc2)cc1 [Compound 5, 2-(2-((5H-[1,2,4]triazino[5,6-b]indol-3-yl)thio)-1-(4-methoxyphenyl)ethylidene)-N-(p-tolyl)hydrazine-1-carbothioamide]	5.2 ± 0.3 µM
COc1ccc(C(CSc2nnc3c(n2)[nH]c2ccccc23)=NNC(=S)Nc2ccc(F)cc2)cc1 [Compound 16, 2-(2-((5H-[1,2,4]triazino[5,6-b]indol-3-yl)thio)-1-(4-methoxyphenyl)ethylidene)-N-(4-fluorophenyl)hydrazine-1-carbothioamide]	1.8 ± 0.2 µM
